Experiments:
[1] = test system: Philadelphia positive Z119 acute lymphoblastic leukemia cells; assay: Colony growth of Z119 ALL cells in methylcellulose culture; assay type: cell-based, human; settings: low nanomolar doses; colonies at 7 days (FIG. 3)
Description: Z119 cells were plated in 1 ml volumes at a density of 1×10^4 cells/ml, in the absence of exogenous growth factors, into 35 mm petri dishes (Nunc, Gibco) containing IMDM (OCl, Toronto) plus 20% FCS (Cansera Rexdale, ON.) in 0.9% (vol/vol) methylcellulose (Fluka, Switzerland) with the indicated concentration of CR4. Cultures were set at 37° C., 5% CO2 in a humidified atmosphere. Colonies consisting of more than 20 cells were counted at 7 days or earlier using an inverted microscope.

Ly-MN lymphoma cells = assay: Colony growth of Ly-MN lymphoma cells in methylcellulose culture; assay type: cell-based; settings: colonies at 5 days (FIG. 5)
Description: Ly-MN cells were plated in 1 ml volumes, in the absence of exogenous growth factors, into 35 mm petri dishes (Nunc, Gibco) containing IMDM (OCl, Toronto) plus 20% human cord blood plasma in 0.9% (vol/vol) methylcellulose (Fluka, Switzerland) and the indicated concentrations of CR4. Cultures were set at 37° C., 5% CO2 in a humidified atmosphere. Colonies consisting of more than 20 cells were counted at 5 days or earlier using an inverted microscope.

[2] = test system: primary juvenile myelo-monocytic leukemia cells; assay: Colony growth of primary JMML CD34+ cells in methylcellulose culture; assay type: cell-based, human; settings: colonies at 12 days (FIG. 6)
Description: Heparinized bone marrow cells from a JMML patient were layered over Percoll (1.077 gm/ml) (Pharmacia Fine Chemical, Piscataway N.J.) and centrifuged at 400 g at 4° C. for 10 minutes to remove neutrophils and RBCs. Cells were further fractionated and purified on Miltenyl MS columns (Miltenyl Biotec GmbH, Germany) to acquire an early progenitor population of CD34^+ cells. The fractionated BM CD34^+ cells at a density of 1×10^4 cells/ml were cultured in IMDM (OCl, Toronto) containing 0.9% (vol/vol) methylcellulose supplemented with 30% FCS (Cansera Rexdale, ON.) with the indicated concentration of CR4. The culture mixture was plated in 1 ml volumes into 35 mm petri dishes and incubated at 37° C., 5% CO2 in a humidified atmosphere. Colonies consisting of more than 20 cells were counted at 12 days or earlier using an inverted microscope.

OCl-LY2 lymphoma cells = assay: Colony growth of OCl-LY2 lymphoma cells in methylcellulose culture; assay type: cell-based; settings: colonies at 5 days (FIG. 7)
Description: OCl-LY2 cells were plated in 1 ml volumes, in the absence of exogenous growth factors, into 35 mm petri dishes (Nunc, Gibco) containing IMDM (OCl, Toronto) plus 20% human cord blood plasma in 0.9% (vol/vol) methylcellulose (Fluka, Switzerland) and the indicated doses of CR4. Cultures were set at 37° C., 5% CO2 in a humidified atmosphere. Colonies consisting of more than 20 cells were counted at 5 days or earlier using an inverted microscope.

[3] = test system: HuNS1 multiple myeloma cells; assay: Colony growth of HuNS1 multiple myeloma cells in methylcellulose culture; assay type: cell-based
Description: HuNS1 cells were plated in 35 mm petri dishes (Nunc, Gibco) in 1 ml volumes at a density of 1×10^4 cells/ml, in the absence of exogenous growth factors, containing alpha MEM plus 20% FCS (Cansera, Rexdale Ont.), and 0.9% (vol/vol) methylcellulose (Fluka, Switzerland) and the indicated concentrations of CR4. Cell cultures were incubated in a humidified atmosphere at 37° C. with 5% CO2. Colonies containing more than 20 cells were scored, using an inverted microscope, at […].

[4] = test system: Z119 acute lymphoblastic leukemia cells; assay: In vitro purging of Z119 acute lymphoblastic leukemia; assay type: cell-based, human
Description: For the purging assay, the cells were resuspended in complete medium with or without CR4 as indicated and incubated at 37° C., 5% CO2 for 0-5 hours. Cells were then washed thoroughly with medium to remove the CR4, resuspended and plated in 1 ml volumes, in the absence of exogenous growth factors, into 35 mm petri dishes (Nunc, Gibco) containing alpha MEM (Gibco) plus 20% FCS (Cansera Rexdale, ON.) in 0.9% (vol/vol) methylcellulose (Fluka, Switzerland). Cultures were set at 37° C., 5% CO2 in a humidified atmosphere. Colonies consisting of more than 20 cells were counted at 9 days or earlier using an inverted microscope.

Jak2 = target: T1, Jak2 (Homo sapiens, UniProt O60674); assay: Jak2 immunoprecipitate kinase assay after preincubation of Z119 cells; assay type: cell-based; settings: Z119 cells preincubated for 5 hours (FIG. 24)
T1 construct: The cells were lysed in lysis buffer and immunoprecipitated with Jak2 antibody; endogenous in cells; host or cells: Z119 Ph+ ALL cell line (immunoprecipitate after 5 h preincubation of cells with CR4)
T1 sequence (O60674 whole entry): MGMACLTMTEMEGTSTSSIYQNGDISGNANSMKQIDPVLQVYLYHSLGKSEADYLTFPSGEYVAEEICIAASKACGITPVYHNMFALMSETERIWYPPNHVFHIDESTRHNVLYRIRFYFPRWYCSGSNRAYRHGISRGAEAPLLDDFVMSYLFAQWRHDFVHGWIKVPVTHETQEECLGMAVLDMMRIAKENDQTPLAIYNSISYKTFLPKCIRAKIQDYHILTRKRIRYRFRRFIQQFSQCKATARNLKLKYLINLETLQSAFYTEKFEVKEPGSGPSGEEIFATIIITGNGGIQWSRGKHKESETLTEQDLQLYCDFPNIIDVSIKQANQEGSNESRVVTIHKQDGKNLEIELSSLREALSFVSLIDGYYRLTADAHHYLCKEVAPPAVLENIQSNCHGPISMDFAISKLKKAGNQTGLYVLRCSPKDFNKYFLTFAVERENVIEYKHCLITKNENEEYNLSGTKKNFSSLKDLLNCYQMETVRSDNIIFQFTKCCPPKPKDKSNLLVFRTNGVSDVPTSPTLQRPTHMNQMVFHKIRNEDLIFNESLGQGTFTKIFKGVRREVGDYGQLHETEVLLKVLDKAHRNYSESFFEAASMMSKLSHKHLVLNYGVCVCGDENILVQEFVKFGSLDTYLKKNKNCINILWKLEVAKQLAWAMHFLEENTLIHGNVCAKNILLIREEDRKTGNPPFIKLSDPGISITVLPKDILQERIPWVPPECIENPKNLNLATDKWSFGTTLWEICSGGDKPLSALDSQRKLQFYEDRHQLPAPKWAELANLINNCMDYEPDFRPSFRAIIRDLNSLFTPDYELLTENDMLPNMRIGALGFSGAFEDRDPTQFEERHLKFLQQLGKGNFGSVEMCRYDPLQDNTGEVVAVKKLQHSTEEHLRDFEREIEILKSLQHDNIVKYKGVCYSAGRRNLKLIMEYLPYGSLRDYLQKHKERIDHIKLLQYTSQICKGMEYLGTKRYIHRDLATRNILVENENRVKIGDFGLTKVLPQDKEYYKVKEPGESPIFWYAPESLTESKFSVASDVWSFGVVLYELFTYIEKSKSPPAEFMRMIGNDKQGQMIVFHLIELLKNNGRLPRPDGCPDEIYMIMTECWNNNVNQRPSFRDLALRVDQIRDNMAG
Description: Philadelphia (Ph+) ALL Line Z119 (5×10^6 Cells/point) was Preincubated for 5 Hours with Different Concentrations of CR4 and Immunoprecipitated with Jak2 Antibody
The cells were lysed in lysis buffer and immunoprecipitated with Jak2 antibody. The precipitates were washed twice with lysis buffer and once with kinase assay buffer, followed by addition of 10 μCi ^33PγATP. The reaction was stopped after 20 min by the addition of SDS-PAGE reducing sample buffer and separated on an 8-16% SDS-PAGE gel. The products were transferred onto nitrocellulose membrane and visualized by autoradiography.

SMILES: N#C/C(=C\C=C\c1ccc(O)c(O)c1)C(=O)NCc1ccccc1 [CR4, (E,E)-2-(benzylaminocarbonyl)-3-(3,4-dihydroxystyryl)acrylonitrile]
- inhibition of Z119 ALL cell proliferation and survival [1]: significant inhibition
- inhibition of cell proliferation and survival (Ly-MN lymphoma cells; by 2.5 μM): inhibition
- inhibition of cell proliferation and survival (Ly-MN lymphoma cells; nanomolar doses): significantly inhibited
- inhibition at 5 µM ([2]; Homo sapiens, JMML, 288 h, 5 μM): 80 to 90%
- killing ability with primary JMML cells [2]: moderate killing ability
- inhibition at 2.5 µM (OCl-LY2 lymphoma cells; 120 h, 2.5 μM, read-out: inhibition of cell proliferation and survival): 90%
- inhibition of cell proliferation and survival (OCl-LY2 lymphoma cells; high nanomolar to low micromolar doses): significantly inhibited
- inhibition at 2.5 µM ([3]; HuNS1, 2.5 μM (FIG. 19), read-out: inhibition of cell proliferation and survival): > 90%
- inhibition of cell proliferation and survival ([3]; high nanomolar to low micromolar doses (FIG. 19)): significantly inhibited
- killing of Z119 cells ([4]; 25 μM, 2.5 hours exposure (FIG. 15)): 85%
- subsequent cell growth of Z119 cells ([4]; 25 μM, five hour exposure (FIG. 15)): complete ablation
- inhibition of Z119 cell growth ([4]; 50 μM, 2.5 hours exposure (FIG. 15)): complete inhibition
- killing of Z119 cells ([4]; at the concentrations examined (25 and 50 μM), 0-5 hours (FIG. 15)): rapid killing
- Jak2 kinase activity (Jak2; 6 μM): dramatically inhibited
- Jak2 kinase activity (Jak2; concentrations higher than 6 μM): further blocked
